Laboratory results: ChEMBL document CHEMBL4387776, “Discovery of novel 9H-purin derivatives as dual inhibitors of HDAC1 and CDK2” (Bioorg Med Chem Lett, 2019)

Key:
[1] = test system: A549; assay: Antiproliferative activity against human A549 cells measured after 72 hrs by CCK8 assay; format: functional, cell-based; conditions: A549, 72 h
[2] = test system: HepG2; assay: Antiproliferative activity against human HepG2 cells measured after 72 hrs by CCK8 assay; format: functional, cell-based; conditions: HepG2, 72 h
[3] = test system: CAL-148; assay: Antiproliferative activity against human CAL148 cells measured after 72 hrs by CCK8 assay; format: functional, cell-based; conditions: CAL-148, 72 h
[4] = target: Histone deacetylase 1 (Homo sapiens, UniProt Q13547); assay: Inhibition of recombinant human full-length C-terminal FLAG-tagged HDAC1 expressed in baculovirus expression system using Ac-peptide-AMC as substrate preincubated for 15 mins followed by substrate addition by fluorescence assay
Chain of Histone deacetylase 1 (Q13547 whole entry): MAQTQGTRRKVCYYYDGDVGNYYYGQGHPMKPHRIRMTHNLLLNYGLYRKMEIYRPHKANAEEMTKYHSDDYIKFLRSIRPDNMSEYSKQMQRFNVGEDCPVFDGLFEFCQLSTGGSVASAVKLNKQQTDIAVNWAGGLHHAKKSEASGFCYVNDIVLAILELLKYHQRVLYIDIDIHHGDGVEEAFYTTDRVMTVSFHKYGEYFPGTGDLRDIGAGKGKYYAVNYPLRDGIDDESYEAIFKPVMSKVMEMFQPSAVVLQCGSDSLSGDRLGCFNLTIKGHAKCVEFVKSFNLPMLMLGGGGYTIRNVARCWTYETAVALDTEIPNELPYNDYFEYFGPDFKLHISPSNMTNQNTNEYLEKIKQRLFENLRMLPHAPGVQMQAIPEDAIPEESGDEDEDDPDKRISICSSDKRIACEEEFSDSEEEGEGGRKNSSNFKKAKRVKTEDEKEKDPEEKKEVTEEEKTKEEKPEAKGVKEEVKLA

[5] = target: CDK2/Cyclin A2 (Homo sapiens, UniProt P24941); assay: Inhibition of wild-type human N-terminal GST-tagged CDK2/cycA2 expressed in Sf21 insect cells using FAM-labelled substrate preincubated for 10 mins followed by substrate addition and measured after 30 mins by fluorescence assay

SMILES | IC50 [1] [nM] | IC50 [2] [nM] | IC50 [3] [nM] | IC50 [4] [nM] | IC50 [5] [nM]
CC[C@H](CO)Nc1nc(NCc2ccccc2)c2ncn(C(C)C)c2n1 [SELICICLIB] | > 10000 | 15800 | > 10000 | – | –
Cc1[nH]c2ccccc2c1CCNCc1ccc(/C=C/C(=O)NO)cc1 [PANOBINOSTAT] | 20 | < 100 | < 100 | – | –
CC(C)n1cnc2c(NCc3cccc(/C=C/C(=O)NO)c3)nc(N3CCOCC3)nc21 | 1260 | 220 | 390 | 7 | 127
CCn1cnc2c(NCc3cccc(/C=C/C(=O)NO)c3)nc(N3CCOCC3)nc21 | 1490 | 770 | 1140 | 5.8 | 56
